How the values were obtained:
[1] = 3-NOP volatility (mass loss open to air); assay type: physicochemical; conditions: 500 mg in 5 dram vial open to air, ~18-24 C, 15-30% RH, 6 days
Experimental: 3-NOP Volatility: 500 mg of 3-NOP in a 5 dram vial was left open to air at ˜18-24 C at 15-30% RH over the course of 6 days. Average mass loss is ˜0.25% per day.

[2] = 3-NOP pH and temperature stability (HPLC); assay type: physicochemical; conditions: 1-month time period, temperature 4-30 C, pH 4-10
Description: 3-NOP pH and Temperature Stability: Confirmed via HPLC over a 1-month time period at temperature between 4-30 C and pH 4-10.

Average mass loss (volatility) [1]: ~0.25 % per day
3-NOP pH and Temperature Stability [2]: Confirmed
SMILES: O=[N+]([O-])OCCCO [Formula 3-NOP, 3-nitrooxypropanol]
